Assay results: US11912703B2, “6-azaindole compounds” (BRISTOL-MYERS SQUIBB COMPANY, priority 2017, dated 2024)
Like-named read-outs stand apart in the source and are kept apart here.

Legend:
human TLR8 = human TLR8 (Homo sapiens (Human), UniProt Q9NR97); assay: TLR8 inhibition reporter assay (HEK-Blue SEAP);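 further: SEAP driven by IFN-β minimal promoter with five NF-κB and AP-1 sites, compounds tested 0.05 nM to 50 µM, 22 h incubation, inhibition relative to agonist plus DMSO wells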
human TLR9 = human TLR9 (Homo sapiens (Human), UniProt Q9NR96); assay: TLR9 inhibition reporter assay (HEK-Blue SEAP);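 further: SEAP driven by IFN-β minimal promoter carrying five NF-κB and AP-1 sites, 22 h at 37 °C, compounds 0.05 nM–50 µM, inhibition scaled between agonist-plus-DMSO and reference-inhibitor wells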
Chain of human TLR9 (Q9NR96 26-1032): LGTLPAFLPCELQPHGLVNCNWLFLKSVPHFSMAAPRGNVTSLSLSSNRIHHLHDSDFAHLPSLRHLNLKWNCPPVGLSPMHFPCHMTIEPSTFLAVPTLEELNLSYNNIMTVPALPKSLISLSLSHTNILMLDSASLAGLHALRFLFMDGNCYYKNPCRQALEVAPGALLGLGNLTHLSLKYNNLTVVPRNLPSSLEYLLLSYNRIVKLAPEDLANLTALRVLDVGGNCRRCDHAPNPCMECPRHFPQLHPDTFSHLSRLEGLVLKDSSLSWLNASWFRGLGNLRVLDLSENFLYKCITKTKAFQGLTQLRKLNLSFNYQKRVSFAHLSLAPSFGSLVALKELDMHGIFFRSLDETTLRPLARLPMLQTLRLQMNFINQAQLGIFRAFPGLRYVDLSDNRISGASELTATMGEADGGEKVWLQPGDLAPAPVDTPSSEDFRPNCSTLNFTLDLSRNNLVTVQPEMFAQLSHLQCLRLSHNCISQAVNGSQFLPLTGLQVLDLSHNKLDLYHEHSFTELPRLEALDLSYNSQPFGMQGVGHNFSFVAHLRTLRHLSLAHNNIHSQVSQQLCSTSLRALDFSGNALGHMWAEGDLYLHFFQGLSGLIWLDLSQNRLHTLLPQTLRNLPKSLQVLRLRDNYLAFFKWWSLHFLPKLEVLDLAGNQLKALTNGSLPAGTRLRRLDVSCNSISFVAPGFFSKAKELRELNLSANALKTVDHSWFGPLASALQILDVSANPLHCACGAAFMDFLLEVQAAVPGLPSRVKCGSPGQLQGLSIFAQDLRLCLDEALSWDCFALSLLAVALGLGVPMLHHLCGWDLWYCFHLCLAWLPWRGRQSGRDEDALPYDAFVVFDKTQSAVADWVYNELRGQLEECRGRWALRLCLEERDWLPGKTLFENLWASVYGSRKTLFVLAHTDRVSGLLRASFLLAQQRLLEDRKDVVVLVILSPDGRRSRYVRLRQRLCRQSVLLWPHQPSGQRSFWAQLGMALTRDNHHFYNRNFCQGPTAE

human TLR7 = human TLR7 (Homo sapiens (Human), UniProt Q9NYK1); assay: TLR7 inhibition reporter assay (HEK-Blue SEAP); assay type: cell-based; details: HEK-Blue cells overexpressing human TLR7, gardiquimod 7.5 μM stimulation
Chain of human TLR7 (Q9NYK1 27-1049): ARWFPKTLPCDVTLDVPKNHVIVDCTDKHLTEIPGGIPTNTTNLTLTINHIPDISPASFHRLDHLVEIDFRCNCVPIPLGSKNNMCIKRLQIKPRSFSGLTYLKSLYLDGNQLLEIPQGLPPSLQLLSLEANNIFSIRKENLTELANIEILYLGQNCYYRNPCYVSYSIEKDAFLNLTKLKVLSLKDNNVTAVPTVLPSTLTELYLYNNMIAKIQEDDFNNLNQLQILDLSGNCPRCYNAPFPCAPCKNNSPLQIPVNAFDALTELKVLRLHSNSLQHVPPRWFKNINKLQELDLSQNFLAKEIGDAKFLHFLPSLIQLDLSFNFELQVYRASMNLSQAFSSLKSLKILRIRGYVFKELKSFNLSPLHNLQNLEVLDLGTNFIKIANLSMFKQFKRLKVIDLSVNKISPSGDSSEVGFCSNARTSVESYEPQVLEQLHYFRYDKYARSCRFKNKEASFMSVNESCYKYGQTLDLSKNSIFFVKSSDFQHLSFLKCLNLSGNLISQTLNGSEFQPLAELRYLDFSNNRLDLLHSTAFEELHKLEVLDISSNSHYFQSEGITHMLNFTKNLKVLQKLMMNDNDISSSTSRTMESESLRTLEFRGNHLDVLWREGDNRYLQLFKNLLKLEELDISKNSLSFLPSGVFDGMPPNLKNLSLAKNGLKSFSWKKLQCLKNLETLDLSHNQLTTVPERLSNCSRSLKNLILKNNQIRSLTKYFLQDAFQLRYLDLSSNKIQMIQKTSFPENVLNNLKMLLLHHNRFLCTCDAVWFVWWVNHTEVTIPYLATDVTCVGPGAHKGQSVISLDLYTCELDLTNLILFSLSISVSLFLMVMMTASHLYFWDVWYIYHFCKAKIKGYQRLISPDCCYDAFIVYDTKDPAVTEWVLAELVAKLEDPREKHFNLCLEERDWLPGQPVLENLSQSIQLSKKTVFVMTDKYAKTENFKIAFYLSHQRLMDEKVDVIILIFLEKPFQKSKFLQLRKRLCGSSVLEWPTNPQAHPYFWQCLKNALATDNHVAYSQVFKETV
Protocol: HEK-Blue™-cells (Invivogen) overexpressing human TLR7, TLR8 or TLR9 receptors were used for screening inhibitors of these receptors using an inducible SEAP (secreted embryonic alkaline phosphatase) reporter gene under the control of the IFN-β minimal promoter fused to five NF-κB and AP-1-binding sites. Briefly, cells are seeded into Greiner 384 well plates (15000 cells per well for TLR7, 20,000 for TLR8 and 25,000 for TLR9) and then treated with test compounds in DMSO to yield a final dose response concentration range of 0.05 nM-50 μM. After a 30 minute compound pre-treatment at room temperature, the cells are then stimulated with a TLR7 ligand (gardiquimod at a final concentration of 7.5 μM), TLR8 ligand (R848 at a final concentration of 15.9 μM) or TLR9 ligand (ODN2006 at a final concentration of 5 nM) to activate NF-κB and AP-1 which induce the production of SEAP. After a 22 hour incubation at 37° C., 500 CO2, SEAP levels are determined with the addition of HEK-Blue™ Detection reagent (Invivogen), a cell culture medium that allows for detection of SEAP, according to manufacturer's specifications.

[1] = read-out: TLR8 IC50; HEK-Blue cells overexpressing human TLR8, R848 15.9 μM stimulation, SEAP reporter
[2] = read-out: TLR9 IC50; HEK-Blue cells overexpressing human TLR9, ODN2006 5 nM stimulation, SEAP reporter
[3] = read-out: TLR8 IC50; HEK-Blue cells overexpressing human TLR8; R848 15.9 μM stimulation; SEAP reporter
[4] = read-out: TLR9 IC50; HEK-Blue cells overexpressing human TLR9; ODN2006 5 nM stimulation; SEAP reporter

Chain of human TLR8 (Q9NR97 27-1041): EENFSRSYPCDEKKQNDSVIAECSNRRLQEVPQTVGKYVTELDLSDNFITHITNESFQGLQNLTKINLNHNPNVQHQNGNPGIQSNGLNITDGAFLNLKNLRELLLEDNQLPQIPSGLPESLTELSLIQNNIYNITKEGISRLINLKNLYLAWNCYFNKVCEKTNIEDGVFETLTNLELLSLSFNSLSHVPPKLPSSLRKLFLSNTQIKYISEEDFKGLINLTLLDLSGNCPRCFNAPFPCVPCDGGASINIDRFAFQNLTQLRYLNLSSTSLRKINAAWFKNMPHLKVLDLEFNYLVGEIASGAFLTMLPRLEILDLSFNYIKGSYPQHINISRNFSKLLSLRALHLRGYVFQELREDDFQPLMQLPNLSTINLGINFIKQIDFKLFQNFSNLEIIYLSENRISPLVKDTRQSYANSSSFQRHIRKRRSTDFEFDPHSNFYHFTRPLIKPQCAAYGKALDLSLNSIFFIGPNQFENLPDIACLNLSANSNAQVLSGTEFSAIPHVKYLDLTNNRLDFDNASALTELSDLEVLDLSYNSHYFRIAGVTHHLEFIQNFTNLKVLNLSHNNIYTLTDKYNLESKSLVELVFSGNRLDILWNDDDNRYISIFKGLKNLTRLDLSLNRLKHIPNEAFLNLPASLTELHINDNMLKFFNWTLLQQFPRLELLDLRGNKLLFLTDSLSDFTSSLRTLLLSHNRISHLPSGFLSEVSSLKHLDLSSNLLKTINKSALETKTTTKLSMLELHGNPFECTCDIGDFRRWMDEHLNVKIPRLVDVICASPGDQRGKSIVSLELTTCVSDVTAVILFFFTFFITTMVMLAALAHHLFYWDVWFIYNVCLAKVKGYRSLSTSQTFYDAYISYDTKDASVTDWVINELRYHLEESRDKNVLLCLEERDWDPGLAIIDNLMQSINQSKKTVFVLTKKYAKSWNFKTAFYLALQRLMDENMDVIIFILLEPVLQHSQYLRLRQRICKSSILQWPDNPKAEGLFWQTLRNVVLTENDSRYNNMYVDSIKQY

Structure (SMILES)	IC50 (human TLR8; [1])	IC50 (human TLR9; [2])	IC50 (human TLR7)	IC50 (human TLR8; [3])	IC50 (human TLR9; [4])	IC50 (human TLR8)	IC50 (human TLR9)
COc1cc(-c2[nH]c3cnc(C4CCC(N5CC6(COC6)C5)C4)cc3c2C(C)C)cn2ncnc12 (centres unmarked) [Example 118]	1.4 nM	294 nM	8.6 nM	–	–	–	–
Cc1c(-c2[nH]c3cnc(N4CC5(CN(CC(F)(F)F)C5)C4)c(F)c3c2C(C)C)cn2ncnc2c1C [Example 434]	48 nM	> 50000 nM	90 nM	–	–	–	–
Cc1c(-c2[nH]c3cnc(N4CCN(CC#N)C[C@H]4C)c(F)c3c2C(C)C)cn2ncnc2c1C [Example 467]	–	–	2.8 nM	1.4 nM	17100 nM	–	–
COc1cc(-c2[nH]c3cnc(N4CCC(NC5COC5)CC4)cc3c2C(C)C)cn2ncnc12 [Example 320]	2 nM	3010 nM	4.4 nM	–	–	–	–
COc1cc(-c2[nH]c3cnc(C4CCC(N5CCC5)CC4)cc3c2C(C)C)cn2ncnc12 (centres unmarked) [Example 332]	56 nM	154 nM	7.7 nM	–	–	–	–
CNC(=O)CNC1CCN(c2cc3c(C(C)C)c(-c4cc(OC)c5ncnn5c4)[nH]c3cn2)CC1 [Example 329]	7.4 nM	647 nM	7.5 nM	–	–	–	–
Cc1c(-c2[nH]c3cnc(N4CCN(CC5(C)COC5)CC4)c(F)c3c2C(C)C)cn2ncnc2c1C [Example 410]	1.3 nM	> 50000 nM	15 nM	–	–	–	–
Cc1c(-c2[nH]c3cnc(C4CCC(NCC(C)(C)C)CC4)c(F)c3c2C(C)C)cn2ncnc2c1C (centres unmarked) [Example 234]	2.6 nM	733 nM	13 nM	2.6 nM	733 nM	–	–
COc1cc(-c2[nH]c3cnc(N4CCNCC4)cc3c2C(C)C)cn2ncnc12 [Example 7, 6-(3-isopropyl-5-(piperazin-1-yl)-1H-pyrrolo[2,3-c]pyridin-2-yl)-8-methoxy-[1,2,4]triazolo [1,5-a]pyridine]	0.56 nM	168 nM	1.5 nM	–	–	–	–
COc1cc(-c2[nH]c3cnc(C4CCC(NCC5(C)COC5)CC4)c(C)c3c2C(C)C)cn2ncnc12 (centres unmarked) [Example 270]	3.2 nM	392 nM	2.6 nM	–	–	–	–
Cc1c(-c2[nH]c3cnc(N4CC5(CN(C(=O)CN6CCOCC6)C5)C4)c(F)c3c2C(C)C)cn2ncnc2c1C [Example 399, 1-(6-(2-(7,8-dimethyl-[1,2,4]triazolo[1,5-a]pyridin-6-yl)-4-fluoro-3-isopropyl-1H-pyrrolo[2,3-c]pyridin-5-yl)-2,6-diazaspiro[3.3]heptan-2-yl)-2-morpholinoethan-1-one]	4.1 nM	–	409 nM	–	–	–	> 50000 nM
CNC(=O)CN1CCC(c2cc3c(C(C)C)c(-c4cc(C)c5ncnn5c4)[nH]c3cn2)CC1 [Example 287]	16 nM	718 nM	2 nM	–	–	–	–
Cc1c(-c2[nH]c3cnc(N4CCN(C5COC5)CC4)c(F)c3c2C(C)C)cn2ncnc2c1C [Example 409]	3.4 nM	> 50000 nM	2.5 nM	–	–	–	–
COc1cc(-c2[nH]c3cnc(N4CCC(NC5CCOC5)CC4)c(F)c3c2C(C)C)cn2ncnc12 (centres unmarked) [Example 103]	0.48 nM	5920 nM	0.86 nM	–	–	–	–
Cc1c(-c2[nH]c3cnc(N4CC5(CN(CC6CCC6)C5)C4)c(F)c3c2C(C)C)cn2ncnc2c1C [Example 404]	4 nM	5810 nM	32 nM	–	–	–	–
Cc1c(-c2[nH]c3cnc(C4CCN(C(=O)CN(C)C)CC4)c(F)c3c2C(C)C)cn2ncnc2c1C [Example 29]	4.7 nM	1700 nM	4.3 nM	–	–	–	–
COc1cc(-c2[nH]c3cnc(C4CCC(NCC(C)(C)OC)C4)cc3c2C(C)C)cn2ncnc12 (centres unmarked) [Example 96]	7.7 nM	294 nM	24 nM	–	–	–	–
Cc1cc(-c2[nH]c3cnc(C4CCN(C5COC5)CC4)cc3c2C(C)C)cn2ncnc12 [Example 341]	21 nM	1030 nM	3.2 nM	–	–	–	–
COc1cc(-c2[nH]c3cnc(C4CCC(N(C)C)CC4)cc3c2C(C)C)cn2ncnc12 (centres unmarked) [Example 340]	708 nM	11500 nM	1270 nM	–	–	–	–
Cc1cc(-c2[nH]c3cnc(N4CCC(N(C)CC(F)F)CC4)c(F)c3c2C(C)C)cn2ncnc12 [Example 257]	6.4 nM	36000 nM	5.3 nM	–	–	–	–
COc1cc(-c2[nH]c3cnc(C4CCNCC4)cc3c2C(C)C)cn2ncnc12 [Example 312]	114 nM	920 nM	8.5 nM	–	–	–	–
Cc1c(-c2[nH]c3cnc(N4CCN(C(=O)CN5CCOCC5)CC4)c(F)c3c2C(C)C)cn2ncnc2c1C [Example 421]	12 nM	> 50000 nM	16 nM	–	–	–	–
COc1cc(-c2[nH]c3cnc(C4CCC(NCC(C)(C)OC)C4)cc3c2C(C)C)cn2ncnc12 (centres unmarked) [Example 179]	7 nM	486 nM	20 nM	–	–	–	–
CNC(=O)CN1CCC(c2cc3c(C(C)C)c(-c4cn5ncnc5c(C)c4C)[nH]c3cn2)CC1 [Example 26]	6.9 nM	633 nM	3.1 nM	–	–	–	–

Second part, the compound after the results:

IC50 (human TLR8; [1])	IC50 (human TLR9; [2])	IC50 (human TLR7)	IC50 (human TLR8; [3])	IC50 (human TLR9; [4])	IC50 (human TLR8)	IC50 (human TLR9)	Structure (SMILES)
6.1 nM	> 50000 nM	29 nM	–	–	–	–	CNC(=O)CN1CCN(c2ncc3[nH]c(-c4cn5ncnc5c(C)c4C)c(C(C)C)c3c2C)CC1 [Example 413]
39 nM	5470 nM	6 nM	–	–	–	–	COc1cc(-c2[nH]c3cnc(N4CC5(CN(CC6CC6)C5)C4)c(F)c3c2C(C)C)cn2ncnc12 [Example 374]
1.2 nM	15400 nM	1.4 nM	–	–	–	–	Cc1cc(-c2[nH]c3cnc(N4CCC(N(C)C)CC4)c(F)c3c2C(C)C)cn2ncnc12 [Example 256]
37 nM	> 50000 nM	35 nM	–	–	–	–	CC(=O)N1CCN(c2ncc3[nH]c(-c4cn5ncnc5c(C)c4C)c(C(C)C)c3c2F)CC1 [Example 427]
–	–	2.6 nM	–	–	6.4 nM	7670 nM	CCCN1CCN(c2ncc3[nH]c(-c4cc(OC)c5ncnn5c4)c(C(C)C)c3c2F)[C@H](C)C1 [Example 437]
13 nM	> 50000 nM	25 nM	–	–	–	–	COc1cc(-c2[nH]c3cnc(N4CCN(C(=O)CN5CCOCC5)C[C@H]4C)c(F)c3c2C(C)C)cn2ncnc12 [Example 438]
0.73 nM	19800 nM	14 nM	–	–	–	–	Cc1c(-c2[nH]c3cnc(N4CCN(CC(=O)N(C)C)CC4)c(C)c3c2C(C)C)cn2ncnc2c1C [Example 352, 2-(4-(2-(7,8-dimethyl-[1,2,4]triazolo[1,5-a]pyridin-6-yl)-3-isopropyl-4-methyl-1H-pyrrolo[2,3-c]pyridin-5-yl)piperazin-1-yl)-N,N-dimethylacetamide]
2.7 nM	> 50000 nM	102 nM	–	–	–	–	Cc1c(-c2[nH]c3cnc(N4CCN(CC(C)(C)C)CC4)c(F)c3c2C(C)C)cn2ncnc2c1C [Example 432]
1.7 nM	5300 nM	3.6 nM	–	–	–	–	COc1cc(-c2[nH]c3cnc(N4CCC(N(C)C5COC5)CC4)c(F)c3c2C(C)C)cn2ncnc12 [Example 104]
0.55 nM	4050 nM	0.55 nM	–	–	–	–	CCN(C)C1CCN(c2ncc3[nH]c(-c4cc(C)c5ncnn5c4)c(C(C)C)c3c2F)CC1 [Example 69]
17 nM	757 nM	4.8 nM	–	–	–	–	CCN(C)C1CCC(c2ncc3[nH]c(-c4cc(OC)c5ncnn5c4)c(C(C)C)c3c2C)CC1 (centres unmarked) [Example 268]
1 nM	701 nM	0.33 nM	–	–	–	–	COc1cc(-c2[nH]c3cnc(N4CCC(N5CCC5)CC4)c(C)c3c2C(C)C)cn2ncnc12 [Example 87]
2.3 nM	1880 nM	1.6 nM	–	–	–	–	Cc1c(N2CCC(NCC(C)(C)C)CC2)ncc2[nH]c(-c3cc(C)c4ncnn4c3)c(C(C)C)c12 [Example 112]
18 nM	> 50000 nM	4.5 nM	–	–	–	–	COc1cc(-c2[nH]c3cnc(N4CCN(C5COC5)CC4)c(F)c3c2C(C)C)cn2ncnc12 [Example 382]
1.1 nM	3500 nM	0.91 nM	–	–	–	–	CNC1CCN(c2ncc3[nH]c(-c4cc(OC)c5ncnn5c4)c(C(C)C)c3c2F)CC1 [Example 191]
0.66 nM	4140 nM	1.2 nM	–	–	–	–	COc1cc(-c2[nH]c3cnc(N4CCC(N(C)C(C)C)CC4)c(F)c3c2C(C)C)cn2ncnc12 [Example 101]
4.9 nM	435 nM	6.5 nM	–	–	–	–	COc1cc(-c2[nH]c3cnc(C4CCC(NC[C@@H](F)C(C)(C)O)CC4)c(C)c3c2C(C)C)cn2ncnc12 (some centres unmarked) [Example 89]
25 nM	> 50000 nM	13 nM	–	–	–	–	CNC(=O)CN1CCN(c2ncc3[nH]c(-c4cc(OC)c5ncnn5c4)c(C(C)C)c3c2F)[C@H](C)C1 [Example 445]
–	–	0.82 nM	0.6 nM	4740 nM	–	–	COc1cc(-c2[nH]c3cnc(N4CCC(N(C)C)CC4)c(F)c3c2C(C)C)cn2ncnc12 [Example 218]
0.76 nM	4850 nM	3.8 nM	–	–	–	–	COCCN1CCN(c2ncc3[nH]c(-c4cc(OC)c5ncnn5c4)c(C(C)C)c3c2F)CC1 [Example 361]
0.71 nM	2290 nM	0.42 nM	–	–	–	–	Cc1c(N2CCC(NCC3(C)COC3)CC2)ncc2[nH]c(-c3cc(C)c4ncnn4c3)c(C(C)C)c12 [Example 170]
–	–	1.5 nM	2.6 nM	812 nM	–	–	CCN(C)C1CCC(c2ncc3[nH]c(-c4cc(OC)c5ncnn5c4)c(C(C)C)c3c2F)CC1 (centres unmarked) [Example 228]
5.2 nM	3360 nM	6.4 nM	–	–	–	–	COc1cc(-c2[nH]c3cnc(N4CCN(CC(=O)N(C)C)CC4)c(C)c3c2C(C)C)cn2ncnc12 [Example 252]
